Patent US11752155B2, “Treatment of autism spectrum disorders, obsessive-compulsive disorder and anxiety disorders” (Rugen Holdings (Cayman) Limited, priority 2016, dated 2023)
Where two headings read alike, the source gives them in different places.

Assays:
human NR1/NR2A = human NR1/NR2A (Homo sapiens (Human), UniProt Q05586+Q12879); assay: NR2A antagonist activity: calcium influx (Fluo-4) assay in HEK293 cells; type: cell-based
Method: Activation of the NR2A or NR2B subtype of NMDA receptor with glutamate as an agonist and glycine co-agonist on these cells results in calcium influx, which can be monitored with fluorescent indicator Fluo-4.
For experiments, the cells were seeded onto poly-D-lysine-coated 96-well black plates with clear bottom (Corning) at a density of ˜50,000 cells/well. After overnight culture, the growth medium was removed from the wells and the cells were incubated at 37° C. for 60 minutes in Hanks buffer containing 4 μM fluo-4-AM (Invitrogen) and 0.1% bovine serum albumin (BSA). After dye-loading, the cells were washed three times with Hanks buffer and incubated for 10 minutes at room temperature with various concentrations of test compounds prepared in Hanks buffer with 0.1% BSA. The cell plates were placed onto an FDSS Cell fluorescence reader (Hamamatsu). After 20 seconds of reading background fluorescence, agonist glutamate at final 100 µM and co-agonist glycine at final 50 μM were added to the cells to activate the receptor, and the resulting fluorescence changes were recorded and quantified. Based on the changes in fluorescence intensity, the pharmacological effect of test compounds was analyzed and the IC50 values derived from a non-linear least squares fitting of the concentration-dependent response to a standard logistic equation using Prism (Graphpad Software, Inc.): Amplitude=Max Amplitude/(1+(IC50/[antagonist])^n).

human NR1/NR2B = human NR1/NR2B (Homo sapiens (Human), UniProt Q05586+Q13224); assay: NR2B antagonist activity: calcium influx (Fluo-4) assay in HEK293 cells; type: cell-based; settings: read-out: NR2B IC50
In short: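 HEK293 cells expressing NR1/NR2A or NR1/NR2B, loaded with fluo-4-AM, preincubated 10 min at room temperature with compound in Hanks buffer/0.1% BSA.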

hERG channel = hERG channel (Homo sapiens (Human), UniProt Q12809); assay: hERG channel inhibition, whole cell patch clamp in HEK293 cells; type: cell-based; settings: human, HEK293 cells stably expressing hERG channel, pH 7.35; 10 μM
Method: The assay was performed on hERG channel stably expressed in HEK293 cells. The cells were cultured at 37° C. in a humidified CO2 incubator in the growth medium consisting of DMEM, 10% fetal bovine serum and antibiotics. Prior to the assay, the cells were seeded onto a 12-mm PDL-coated glass coverslip and cultured in a 35-mm Petri dish. After 16 to 40 hours culture, the coverslip was transferred into the chamber of OctaFlow perfusion system (ALA Instrument) and under a constant flow of extracellular solution (140 mM NaCl, 4 mM KCl, 1 mM MgCl2, 2 mM CaCl2, 10 mM HEPES, 10 mM D-glucose, pH 7.35, osmolarity 290). Whole cell patch clamping was performed with a glass micropipette filled with intracellular solution (120 mM KCl, 1.75 mM MgCl2, 5.4 mM CaCl2, 10 mM HEPES, 10 mM EGTA, and 4 mM ATP-K2, pH 7.2, osmolarity 310). Giga-seal was maintained during the test. The voltage control and current measurement were carried out using Axon amplifier 700B, Digidata 1440A and CLAMPEX10 software (Molecular Devices). Whole-cell hERG currents were recorded following the Petroski protocol: the cell was held at −80 mV, and the voltage step jumped from −80 to 30 mV and stay for 2 seconds with a 20-millisecond prepulse at −40 mV. After depolarization, the voltage was decreased to −40 mV and stay for 2 seconds, and returned back to −80 mV. Test compound was applied by quartz capillary tubes tip (200 m inner diameter), and the flow rate was controlled at 2-3 mL/min with OctaFlow perfusion system. Different concentrations of the compound were applied to the cells for 5 minutes and the hERG current was measured three times before, during and after compound treatment. The data were analyzed using Clampfit 10 software (Molecular Devices) to generate IC50 values.

CYP2D6 = CYP2D6 (Homo sapiens (Human), UniProt P10635); assay: CYP P450 enzyme inhibition in pooled human liver microsomes (dextromethorphan probe); type: in vitro ADME; settings: human, pooled human liver microsomes, pH 7.4, probe dextromethorphan, 5 μM; 10 μM; read-out: CYP2D6 Inhibiton at 10 μM
Method: Test compound concentration-dependent response studies were performed in triplicate.

[1] = single subcutaneous administration, highest dose tested; cited from earlier work
[2] = 18 patients, 6-19 years of age; cited from earlier work
[3] = after 8 weeks of treatment; cited from earlier work
[4] = Table 1.1B, read-out: NR2A IC50

Chain of human NR1/NR2B (Q13224 27-1484, other chains not shown): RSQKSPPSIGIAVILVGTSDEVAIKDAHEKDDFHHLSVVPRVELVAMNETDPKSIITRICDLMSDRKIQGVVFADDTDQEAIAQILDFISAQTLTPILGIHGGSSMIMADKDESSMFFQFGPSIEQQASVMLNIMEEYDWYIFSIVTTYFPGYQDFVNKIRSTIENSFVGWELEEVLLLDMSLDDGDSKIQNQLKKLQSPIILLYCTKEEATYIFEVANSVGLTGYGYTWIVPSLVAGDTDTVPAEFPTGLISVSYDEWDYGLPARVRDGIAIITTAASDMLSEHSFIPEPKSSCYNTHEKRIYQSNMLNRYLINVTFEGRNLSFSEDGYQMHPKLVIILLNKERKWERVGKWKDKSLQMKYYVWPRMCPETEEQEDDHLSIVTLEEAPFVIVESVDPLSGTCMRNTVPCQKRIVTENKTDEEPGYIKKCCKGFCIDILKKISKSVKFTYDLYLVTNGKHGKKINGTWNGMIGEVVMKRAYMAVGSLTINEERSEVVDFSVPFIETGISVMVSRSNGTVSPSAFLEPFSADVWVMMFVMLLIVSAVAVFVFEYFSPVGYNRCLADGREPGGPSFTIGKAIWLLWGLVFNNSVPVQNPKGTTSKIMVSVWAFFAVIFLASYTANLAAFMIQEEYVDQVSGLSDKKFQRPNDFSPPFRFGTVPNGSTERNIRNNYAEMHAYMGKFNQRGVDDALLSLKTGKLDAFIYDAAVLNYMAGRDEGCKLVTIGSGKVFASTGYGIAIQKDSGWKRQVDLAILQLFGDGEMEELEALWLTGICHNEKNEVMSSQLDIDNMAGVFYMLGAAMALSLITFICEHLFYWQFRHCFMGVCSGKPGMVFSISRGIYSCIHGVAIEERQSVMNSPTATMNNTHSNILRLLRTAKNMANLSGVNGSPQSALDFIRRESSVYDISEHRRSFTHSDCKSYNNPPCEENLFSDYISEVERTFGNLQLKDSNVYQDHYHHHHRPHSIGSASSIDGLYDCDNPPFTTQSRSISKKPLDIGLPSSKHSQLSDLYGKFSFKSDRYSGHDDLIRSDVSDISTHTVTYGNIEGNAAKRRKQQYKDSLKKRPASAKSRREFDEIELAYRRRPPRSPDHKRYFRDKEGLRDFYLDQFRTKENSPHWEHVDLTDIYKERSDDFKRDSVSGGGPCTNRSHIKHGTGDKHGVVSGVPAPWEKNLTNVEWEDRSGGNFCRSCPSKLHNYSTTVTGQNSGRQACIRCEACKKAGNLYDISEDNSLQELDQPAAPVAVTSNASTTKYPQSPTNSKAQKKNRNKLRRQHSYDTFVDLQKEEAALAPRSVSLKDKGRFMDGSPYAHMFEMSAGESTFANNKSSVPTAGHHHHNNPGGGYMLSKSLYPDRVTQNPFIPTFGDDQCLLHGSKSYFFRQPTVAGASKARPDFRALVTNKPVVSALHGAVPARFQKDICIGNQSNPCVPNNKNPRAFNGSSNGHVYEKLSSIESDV
Chain of human NR1/NR2A (Q12879 23-1464, other chains not shown): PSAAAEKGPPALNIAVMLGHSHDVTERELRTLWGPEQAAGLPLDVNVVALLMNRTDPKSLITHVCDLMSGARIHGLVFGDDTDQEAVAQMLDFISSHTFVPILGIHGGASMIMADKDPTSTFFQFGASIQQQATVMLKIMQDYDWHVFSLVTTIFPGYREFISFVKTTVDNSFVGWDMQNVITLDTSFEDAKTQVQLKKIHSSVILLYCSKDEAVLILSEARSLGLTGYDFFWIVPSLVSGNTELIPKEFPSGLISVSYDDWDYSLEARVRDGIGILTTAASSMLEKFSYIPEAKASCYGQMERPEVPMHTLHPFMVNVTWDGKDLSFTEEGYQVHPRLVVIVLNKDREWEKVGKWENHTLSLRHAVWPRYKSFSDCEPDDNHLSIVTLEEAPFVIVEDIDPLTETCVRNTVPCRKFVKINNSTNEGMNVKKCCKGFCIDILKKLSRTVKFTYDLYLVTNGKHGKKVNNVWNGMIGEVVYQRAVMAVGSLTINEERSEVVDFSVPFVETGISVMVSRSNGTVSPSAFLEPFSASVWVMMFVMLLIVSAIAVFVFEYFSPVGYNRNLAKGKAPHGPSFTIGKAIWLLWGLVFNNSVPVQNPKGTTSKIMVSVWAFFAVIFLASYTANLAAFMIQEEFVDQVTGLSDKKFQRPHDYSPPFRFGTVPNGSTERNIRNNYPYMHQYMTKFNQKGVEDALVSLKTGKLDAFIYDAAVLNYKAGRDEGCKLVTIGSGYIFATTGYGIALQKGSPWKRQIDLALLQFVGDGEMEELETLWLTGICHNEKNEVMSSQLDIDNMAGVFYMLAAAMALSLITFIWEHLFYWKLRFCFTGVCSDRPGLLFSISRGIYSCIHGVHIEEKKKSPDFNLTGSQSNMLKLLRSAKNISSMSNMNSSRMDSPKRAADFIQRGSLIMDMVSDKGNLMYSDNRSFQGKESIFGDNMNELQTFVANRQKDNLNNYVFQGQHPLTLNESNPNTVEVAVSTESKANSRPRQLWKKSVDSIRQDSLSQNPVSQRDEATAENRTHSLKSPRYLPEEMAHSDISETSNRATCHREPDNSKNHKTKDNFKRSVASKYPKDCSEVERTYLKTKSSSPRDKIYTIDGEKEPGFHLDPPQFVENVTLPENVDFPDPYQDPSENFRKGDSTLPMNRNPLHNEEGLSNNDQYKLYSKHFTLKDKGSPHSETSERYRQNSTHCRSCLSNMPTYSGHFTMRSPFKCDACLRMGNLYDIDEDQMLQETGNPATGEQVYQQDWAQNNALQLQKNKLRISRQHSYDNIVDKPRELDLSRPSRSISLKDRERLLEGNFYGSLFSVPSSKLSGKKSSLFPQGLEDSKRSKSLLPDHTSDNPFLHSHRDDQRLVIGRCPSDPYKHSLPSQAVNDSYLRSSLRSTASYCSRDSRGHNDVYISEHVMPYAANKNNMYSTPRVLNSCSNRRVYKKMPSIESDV
Chain of CYP2D6 (P10635 whole entry): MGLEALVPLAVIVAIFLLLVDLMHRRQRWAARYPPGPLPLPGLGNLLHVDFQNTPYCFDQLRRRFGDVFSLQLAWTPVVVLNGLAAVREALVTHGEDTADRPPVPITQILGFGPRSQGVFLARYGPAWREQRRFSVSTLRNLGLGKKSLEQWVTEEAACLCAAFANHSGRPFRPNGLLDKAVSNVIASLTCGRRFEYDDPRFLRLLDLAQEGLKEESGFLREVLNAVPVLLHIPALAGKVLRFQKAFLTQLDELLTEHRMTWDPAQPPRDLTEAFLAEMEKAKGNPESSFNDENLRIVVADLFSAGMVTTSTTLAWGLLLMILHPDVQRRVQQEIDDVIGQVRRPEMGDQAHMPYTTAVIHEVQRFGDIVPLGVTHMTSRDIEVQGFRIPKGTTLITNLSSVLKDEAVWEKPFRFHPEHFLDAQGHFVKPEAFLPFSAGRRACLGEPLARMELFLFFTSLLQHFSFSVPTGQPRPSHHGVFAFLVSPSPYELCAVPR
Chain of hERG channel (Q12809 whole entry): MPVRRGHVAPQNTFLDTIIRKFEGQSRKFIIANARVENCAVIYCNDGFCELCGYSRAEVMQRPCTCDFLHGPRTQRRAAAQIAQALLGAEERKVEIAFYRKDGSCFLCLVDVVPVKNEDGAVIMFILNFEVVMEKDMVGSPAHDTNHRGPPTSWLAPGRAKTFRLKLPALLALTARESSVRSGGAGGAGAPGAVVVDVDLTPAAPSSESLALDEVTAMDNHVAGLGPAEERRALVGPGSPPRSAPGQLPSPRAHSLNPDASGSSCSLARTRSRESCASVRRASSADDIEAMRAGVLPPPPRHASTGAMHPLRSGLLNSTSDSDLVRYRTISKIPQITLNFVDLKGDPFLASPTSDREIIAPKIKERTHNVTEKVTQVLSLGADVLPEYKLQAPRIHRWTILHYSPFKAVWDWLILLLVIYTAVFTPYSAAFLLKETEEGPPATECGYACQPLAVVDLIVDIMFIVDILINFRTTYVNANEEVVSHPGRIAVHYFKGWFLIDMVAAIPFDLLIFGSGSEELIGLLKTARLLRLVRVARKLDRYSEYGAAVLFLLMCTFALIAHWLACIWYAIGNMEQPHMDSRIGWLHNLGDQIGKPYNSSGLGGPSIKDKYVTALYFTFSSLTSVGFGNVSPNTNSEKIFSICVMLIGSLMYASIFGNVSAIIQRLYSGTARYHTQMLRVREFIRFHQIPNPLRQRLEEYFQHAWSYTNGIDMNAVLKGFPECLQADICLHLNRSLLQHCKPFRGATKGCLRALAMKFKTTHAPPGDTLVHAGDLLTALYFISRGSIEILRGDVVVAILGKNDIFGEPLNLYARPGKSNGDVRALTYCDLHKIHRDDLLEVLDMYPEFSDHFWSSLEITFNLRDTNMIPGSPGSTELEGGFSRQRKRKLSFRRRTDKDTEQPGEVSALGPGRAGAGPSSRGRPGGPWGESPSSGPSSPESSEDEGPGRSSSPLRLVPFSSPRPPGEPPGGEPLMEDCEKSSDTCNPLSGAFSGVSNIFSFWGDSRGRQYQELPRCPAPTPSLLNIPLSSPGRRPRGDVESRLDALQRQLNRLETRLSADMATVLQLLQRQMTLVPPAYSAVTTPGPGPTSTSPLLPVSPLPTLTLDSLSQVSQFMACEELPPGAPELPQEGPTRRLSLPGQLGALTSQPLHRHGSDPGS

SMILES	IC50 (human NR1/NR2A; [4]) [µM]	inhibition at 5 min, 10 µM (hERG channel) [%]	inhibition at 10 min, 10 µM (CYP2D6) [%]	also measured
FC(F)(CN1CCC(Nc2ncnc3[nH]ccc23)CC1)c1ccccn1 [C-1^A′]				IC50 (human NR1/NR2A): > 10 µM
CCc1ccc(COC(=O)N2CC[C@H](CNc3nccn4cnnc34)C(F)(F)C2)cc1 [E1-1.5^B′]	> 10	46	28	IC50 (human NR1/NR2B; Table 1.1B): 9.6 nM; IC50 (human NR1/NR2B; Table 1.3B): 9.6 nM; IC50 (human NR1/NR2B; Table 1.4B): 9.6 nM
Cc1ccc(COC(=O)N2CC[C@H](CNc3ncc4cn[nH]c4n3)C(F)(F)C2)cc1 [E1-8.2^B′]	> 10	57	83	
Cc1ccc(COC(=O)N2CC[C@H](CNc3nc4ccccn4n3)C(F)(F)C2)cc1 [E1-9.2^B′]	> 10	38	14	
C[C@@H](CN1CCC(Cc2ccccc2)CC1)[C@@H](O)c1ccc(O)cc1 [Ro25-6981]				efficacy in the Marble Burying Test [1]: modest efficacy
CC12CC3CC(C)(C1)CC(N)(C3)C2 [memantine]				patients who developed adverse effects [2]: seven out of 18; remission [3]: 89%; response [3]: 100%
